# In US20260124201A1, “CYCLOPENTANE COMPOUND” (Kissei Pharmaceutical Co., Ltd., priority 2022, published 2026):
# Molecular target: T1, human OX2R (Homo sapiens, UniProt O43614)
# T1 construct: expressed in transfected cells
# T1 sequence (O43614 1-444): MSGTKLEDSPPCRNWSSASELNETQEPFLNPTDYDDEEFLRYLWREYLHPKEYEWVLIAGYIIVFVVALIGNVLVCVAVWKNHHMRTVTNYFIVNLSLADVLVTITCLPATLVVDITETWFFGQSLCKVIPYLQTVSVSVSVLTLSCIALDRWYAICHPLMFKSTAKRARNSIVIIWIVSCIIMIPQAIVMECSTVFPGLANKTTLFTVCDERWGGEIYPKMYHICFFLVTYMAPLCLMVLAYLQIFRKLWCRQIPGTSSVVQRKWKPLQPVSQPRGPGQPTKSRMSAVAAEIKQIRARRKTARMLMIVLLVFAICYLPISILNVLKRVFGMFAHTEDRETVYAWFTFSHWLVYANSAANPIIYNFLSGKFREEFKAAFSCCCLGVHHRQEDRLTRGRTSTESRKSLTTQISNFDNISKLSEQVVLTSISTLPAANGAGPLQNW
# Experiment: Measurement of OX2R agonist activity (intracellular calcium concentration change, Fluo4-AM, FDSS 7000)
# Type: cell-based
# Conditions: compound concentration 10 μM; human OX2R-expressing CHO-K1 cells; 1 μM human orexin A peptide = 100%, medium alone = 0%
# Text: The following abbreviations in the description, the figures and the tables have the following meanings, respectively. • AZADOL (registered trademark): 2-Hydroxy-2-azaadamantane • Boc2O: di-tert-butyl dicarbonate • DIPEA: N,N-diisopropylethylamine • DCM: dichloromethane • DMAP: 4-dimethylaminopyridine • DMF: N,N-dimethylformamide • DMSO: dimethylsulfoxide • Deoxo-Fluor: bis(2-methoxyethyl)-aminosulfur trifluoride • HATU: O-(7-azabenzotriazol-1-yl)-N,N,N′,N′-tetramethyluronium hexafluorophosphate • LDA: lithium diisopropylamide • MeCN: acetonitrile • Me4tBuXPhos: 2-di-tert-butylphosphino-3,4,5,6-tetramethyl-2′,4′,6′-triisopropyl-1,1′-biphenyl • MTBE: methyl tert-butyl ether • NMP: N-methylpyrrolidone • PdCl2(PPh3)2: dichlorobis(triphenylphosphine)palladium(II) • Pd(dba)2: bis(dibenzylideneacetone)palladium(0) • Pd2(dba)3: tris(dibenzylideneacetone)dipalladium(0) • Pd(dppf)Cl2: [1,1′-bis(diphenylphosphino)ferrocene]dichloropalladium(II) • Pd(PPh3)4: tetrakis(triphenylphosphine)palladium(0) • TEA: triethylamine • TFA: trifluoroacetic acid • THF: tetrahydrofuran • Xphos: 2-dicyclohexylphosphino-2′,4′,6′-triisopropylbiphenyl • Xphos Pd G3: (2-dicyclohexylphosphino-2′,4′,6′-triisopropyl-1,1′-biphenyl)[2-(2′-amino-1,1′-biphenyl)]palladium(II) methanesulfonic acid salt • 10% Pd/C: Palladium 10% on Carbon (wetted with ca. 55% water) • APS: aminopropylated silica gel • ODS: octadecyl-silylated silica gel • Method A: column chromatography with an aminopropylated silica gel column followed by a silica gel column • Chiral preparative column chromatography: chiral preparative column chromatography using YMC CHIRALART Cellulose-SB • Ref. No.: Reference Example Number • Str.: structural formula • Ex. No.: Example Number • Phys. data: physical data • ^1H-NMR: hydrogen nuclear magnetic resonance spectrum • CDCl3: chloroform-d1 • MS: mass spectrometry (The measured values in the tables were measured by electrospray ionization or multiionization using electrospray ionization-atmospheric pressure chemical ionization.) • Act.: activation rate of test substance at a compound concentration of 10 μM calculated by setting the fluorescence intensity obtained when human orexin A peptide was added at a concentration of 1 μM as 100% and the fluorescence intensity obtained when the medium alone was added as 0% • CHO: Chinese hamster ovary • HEPES: 2-[4-(2-hydroxyethyl)-1-piperazinyl]ethanesulfonic acid
# A human OX2R sequence (Accession No. NM_001526.4) was inserted into the multiple cloning site of pcDNA3.4 (Life Technologies Japan Ltd.) to clone a plasmid vector for human OX2R expression. The plasmid was introduced into CHO-K1 cells using Lipofectamine 2000 (Life Technologies Japan Ltd.). Two days later, the transgenic CHO-K1 cells were passaged into 175T flasks and cultured selectively for 6 days. As a selection medium, Ham's F-12 Nutrient Mix (Life Technologies Japan Ltd.), containing Geneticin (registered trademark) (Life Technologies Japan Ltd.) at a final concentration of 1 mg/mL and inactivated fetal bovine serum (Biowest) at a final concentration of 10%, was used. After the selective culture, the cells were reseeded into 96-well plates, and a human OX2R-expressing cell line was obtained by limiting dilution.
# The agonist effects of test substances on human OX2R were evaluated using the intracellular calcium concentration-change upon stimulation as an indicator. A day before measurement of the intracellular calcium concentrations, human OX2R-expressing cells suspended in a medium were seeded into 384-well plates at 5×10^3 cells/50 μL/well and cultured overnight in an incubator set at 37° C. and 5% CO2. After incubation, the medium was removed and replaced with 20 μL of a loading buffer. […]
row,Structure (SMILES),Act. (%): activation rate of test substance [%]
1,"CCNC(=O)[C@@]1(Cc2cccc(-c3ccccc3)c2)CC[C@H](NS(C)(=O)=O)C1 (relative stereo) [Example 1, (1R*,3S*)-1-([1,1′-Biphenyl]-3-ylmethyl)-N-ethyl-3-(methylsulfonamido)cyclopentane-1-carboxamide]",50
2,"CON(C)C(=O)[C@@]1(Cc2cccc(-c3ccccc3)c2)CC[C@H](NS(C)(=O)=O)C1 (relative stereo) [Example 2, (1R*,3S*)-1-([1,1′-Biphenyl]-3-ylmethyl)-N-methoxy-N-methyl-3-(methylsulfonamido)cyclopentane-1-carboxamide]",84
3,"CON(C)C(=O)[C@@]1(Cc2ccc(F)c(-c3ccccc3F)c2)CC[C@H](NS(C)(=O)=O)C1 (relative stereo) [Example 3, (1R*,3S*)-1-((2′,6-Difluoro-[1,1′-biphenyl]-3-yl)methyl)-N-methoxy-N-methyl-3-(methylsulfonamido)cyclopentane-1-carboxamide]",93
4,CON(C)C(=O)[C@@]1(Cc2ccc(F)c(-c3ccc(F)cc3)c2)CC[C@H](NS(C)(=O)=O)C1 (relative stereo) [Example 4],82
5,CON(C)C(=O)[C@@]1(Cc2ccc(F)c(-c3cc(F)cc(F)c3)c2)CC[C@H](NS(C)(=O)=O)C1 (relative stereo) [Example 5],73
6,"CNS(=O)(=O)N[C@H]1CC[C@](Cc2cccc(-c3ccccc3)c2)(C(=O)N(C)OC)C1 (relative stereo) [Example 6, (1R*,3S*)-1-([1,1′-Biphenyl]-3-ylmethyl)-N-methoxy-N-methyl-3-((N-methylsulfamoyl)amino)cyclopentane-1-carboxamide]",92
7,"CS(=O)(=O)N[C@H]1CC[C@](Cc2cccc(-c3ccccc3)c2)(C(=O)N2CCCO2)C1 (relative stereo) [Example 7, N-((1S*,3R*)-3-([1,1′-Biphenyl]-3-ylmethyl)-3-(isoxazolidine-2-carbonyl)cyclopentyl)methanesulfonamide]",70
8,C[C@H]1CCCN1C(=O)[C@@]1(Cc2cccc(-c3ccccc3)c2)CC[C@H](NS(C)(=O)=O)C1 (relative stereo) [Example 8],75
9,C[C@@H]1CCCN1C(=O)[C@@]1(Cc2cccc(-c3ccccc3)c2)CC[C@H](NS(C)(=O)=O)C1 (relative stereo) [Example 9],58
10,"CON(C)C(=O)[C@@]1(Cc2cccc(-c3ccccc3C#N)c2)CC[C@H](NS(C)(=O)=O)C1 (relative stereo) [Example 10, (1R*,3S*)-1-((2′-Cyano-[1,1′-biphenyl]-3-yl)methyl)-N-methoxy-N-methyl-3-(methylsulfonamido)cyclopentane-1-carboxamide]",41
11,CON(C)C(=O)[C@@]1(Cc2cccc(-c3ccccc3O)c2)CC[C@H](NS(C)(=O)=O)C1 (relative stereo) [Example 11],71
12,"CON(C)C(=O)[C@@]1(Cc2cccc(-c3ccc(F)cn3)c2)CC[C@H](NS(C)(=O)=O)C1 (relative stereo) [Example 12, (1R*,3S*)-1-(3-(5-Fluoropyridin-2-yl)benzyl)-N-methoxy-N-methyl-3-(methylsulfonamido)cyclopentane-1-carboxamide]",86
13,CON(C)C(=O)[C@@]1(Cc2cccc(-c3nc(C)co3)c2)CC[C@H](NS(C)(=O)=O)C1 (relative stereo) [Example 13],90
14,CON(C)C(=O)[C@@]1(Cc2cccc(-c3ccco3)c2)CC[C@H](NS(C)(=O)=O)C1 (relative stereo) [Example 14],93
15,"CON(C)C(=O)[C@@]1(Cc2cccc(-c3ncc(Cl)cn3)c2)CC[C@H](NS(C)(=O)=O)C1 (relative stereo) [Example 15, (1R*,3S*)-1-(3-(5-Chloropyrimidin-2-yl)benzyl)-N-methoxy-N-methyl-3-(methylsulfonamido)cyclopentane-1-carboxamide]",86
16,CON(C)C(=O)[C@@]1(Cc2cccc(-c3cscn3)c2)CC[C@H](NS(C)(=O)=O)C1 (relative stereo) [Example 16],91
17,CON(C)C(=O)[C@@]1(Cc2cccc(-c3ncc(F)cn3)c2)CC[C@H](NS(C)(=O)=O)C1 (relative stereo) [Example 17],99
18,CON(C)C(=O)[C@@]1(Cc2cccc(-c3ncc(C)cn3)c2)CC[C@H](NS(C)(=O)=O)C1 (relative stereo) [Example 18],87
19,CON(C)C(=O)[C@@]1(Cc2cccc(-c3ncc(C(F)(F)F)cn3)c2)CC[C@H](NS(C)(=O)=O)C1 (relative stereo) [Example 19],45
20,COc1cnc(-c2cccc(C[C@]3(C(=O)N(C)OC)CC[C@H](NS(C)(=O)=O)C3)c2)nc1 (relative stereo) [Example 20],75
21,"CON(C)C(=O)[C@@]1(Cc2cccc(-c3ncc(N(C)C)cn3)c2)CC[C@H](NS(C)(=O)=O)C1 (relative stereo) [Example 21, (1R*,3S*)-1-(3-(5-(Dimethylamino)pyrimidin-2-yl)benzyl)-N-methoxy-N-methyl-3-(methylsulfonamido)cyclopentane-1-carboxamide]",48
22,CON(C)C(=O)[C@@]1(Cc2ccc(C)c(-c3ncc(F)cn3)c2)CC[C@H](NS(C)(=O)=O)C1 (relative stereo) [Example 22],87
23,CON(C)C(=O)[C@@]1(Cc2ccc(F)c(-c3ncc(Cl)cn3)c2)CC[C@H](NS(C)(=O)=O)C1 (relative stereo) [Example 23],83
24,CON(C)C(=O)[C@@]1(Cc2ccc(F)c(-c3ncc(C)cn3)c2)CC[C@H](NS(C)(=O)=O)C1 (relative stereo) [Example 24],83
25,CON(C)C(=O)[C@@]1(Cc2ccc(C(F)(F)F)c(-c3ncc(F)cn3)c2)CC[C@H](NS(C)(=O)=O)C1 (relative stereo) [Example 25],63
26,CON(C)C(=O)[C@@]1(Cc2cc(-c3ncccn3)ccc2F)CC[C@H](NS(C)(=O)=O)C1 (relative stereo) [Example 26],99
27,"CON(C)C(=O)[C@@]1(Cc2cccc(-n3nccn3)c2)CC[C@H](NS(C)(=O)=O)C1 (relative stereo) [Example 27, (1R*,3S*)-1-(3-(2H-1,2,3-Triazol-2-yl)benzyl)-N-methoxy-N-methyl-3-(methylsulfonamido)cyclopentane-1-carboxamide]",87
28,"CCN(C)C(=O)[C@@]1(Cc2cccc(-c3ncccn3)c2)CC[C@H](NS(C)(=O)=O)C1 (relative stereo) [Example 28, (1R*,3S*)—N-Ethyl-N-methyl-3-(methylsulfonamido)-1-(3-(pyrimidin-2-yl)benzyl)cyclopentane-1-carboxamide]",92
